According to PubChem BioAssay AID624361 (Broad Institute, 2012):
Records with an inconclusive call do not appear.

Tested on: LMP1-induced NF-kappaB luciferase reporter cells, luminescence
Assay: inhibitors of LMP1-driven NF-kB reporter, dose response, cell-based, EBV LMP1, luciferase, dry powder, set 2 (AID 624361)

Structure (SMILES)	AC35 [µM]
Cc1noc(C)c1S(=O)(=O)Nc1ccc2c(c1)C(=O)N([C@H](C)CO)C[C@@H](C)[C@H](CN(C)Cc1ccc(C(F)(F)F)cc1)OCCCC[C@H](C)O2	31.2
COc1ccc(S(=O)(=O)N(C)C[C@@H]2Oc3ncc(/C=C/c4ccccc4)cc3C(=O)N([C@@H](C)CO)C[C@H]2C)cc1	28.6
COc1cccc(C#Cc2ccc([C@@H]3[C@@H](C#N)N(C(=O)c4ccccn4)[C@@H]3CO)cc2)c1	18
CN1C(=O)c2cc(NC(=O)Cc3cccs3)ccc2OC[C@@H]2O[C@H](CC(=O)NCc3ccc(-c4ccccc4)cc3)CC[C@H]21	29.4
C[C@H]1CN([C@@H](C)CO)C(=O)c2cc(C#Cc3ccccc3F)cnc2O[C@@H]1CN(C)C(=O)C1CCCCC1	24.6
Cc1cc(C(=O)Nc2ccc3c(c2)C(=O)N(C)[C@@H]2CC[C@@H](CC(=O)NCc4ccc(-c5ccccc5)cc4)O[C@H]2CO3)no1	4.76
O=C(C[C@H]1C[C@@H]2c3cc(NC(=O)c4ccc5c(c4)OCO5)ccc3O[C@@H]2[C@@H](CO)O1)NCc1ccc(Oc2ccccc2)cc1	26.6
COc1ccccc1C#Cc1ccc2c(c1)O[C@H](CN(C)Cc1cccnc1)[C@H](C)CN([C@H](C)CO)S2(=O)=O	20.3
COc1ccccc1C#Cc1ccc([C@H]2[C@H](C#N)N(C(=O)C3CC3)[C@H]2CO)cc1	20
Cc1cc(C(=O)Nc2ccc3c(c2)C(=O)N(C)[C@H]2CC[C@@H](CC(=O)NCc4ccc(-c5ccccc5)cc4)O[C@H]2CO3)no1	14.2
C[C@H](CO)N1C[C@H](C)[C@H](CN(C)C(=O)NC2CCCCC2)Oc2cc(/C=C/c3ccccc3)ccc2S1(=O)=O	24
O=C(C[C@H]1C[C@H]2c3cc(NC(=O)c4ccc5c(c4)OCO5)ccc3O[C@H]2[C@H](CO)O1)NCc1ccc(Oc2ccccc2)cc1	20.7
O=C(C[C@@H]1C[C@H]2c3cc(NS(=O)(=O)c4ccc(F)cc4)ccc3O[C@H]2[C@@H](CO)O1)NCc1ccc(Oc2ccccc2)cc1	14.7
N#C[C@H]1[C@@H](c2ccc(-c3cccnc3)cc2)[C@@H](CO)N1C(=O)Nc1ccc(F)cc1	34.3
Cc1noc(C)c1S(=O)(=O)Nc1ccc2c(c1)C(=O)N([C@@H](C)CO)C[C@@H](C)[C@H](CN(C)Cc1ccc(C(F)(F)F)cc1)OCCCC[C@H](C)O2	25.6
O=C(C[C@@H]1CC[C@@H]2[C@H](COC[C@H](O)CN2Cc2ccc3c(c2)OCO3)O1)Nc1ccc(-c2ccccc2)cc1	7.79
COc1cccc(S(=O)(=O)N(C)C[C@H]2Oc3cc(C4=CCCCC4)ccc3S(=O)(=O)N([C@H](C)CO)C[C@H]2C)c1	33
O=C(Nc1ccc(C(F)(F)F)cc1)Nc1ccc2c(c1)[C@H]1C[C@H](CC(=O)N3CCc4ccccc4C3)O[C@H](CO)[C@H]1O2	24.9
COc1ccc(S(=O)(=O)N(C)C[C@H]2Oc3ncc(/C=C/c4ccccc4)cc3C(=O)N([C@H](C)CO)C[C@@H]2C)cc1	20.5
O=C(C[C@H]1C[C@H]2c3cc(NS(=O)(=O)c4ccc(F)cc4)ccc3O[C@H]2[C@H](CO)O1)NCc1ccc(Oc2ccccc2)cc1	10.3
Cc1noc(C)c1S(=O)(=O)Nc1ccc2c(c1)C(=O)N([C@@H](C)CO)C[C@@H](C)[C@H](CN(C)Cc1ccc(C(F)(F)F)cc1)OCCCC[C@@H](C)O2	31.7
O=C(C[C@@H]1CC[C@H]2[C@@H](COC[C@H](O)CN2Cc2ccc(Oc3ccccc3)cc2)O1)N1CCc2ccccc2C1	25.7
COc1cccc(S(=O)(=O)N(C)C[C@@H]2Oc3cc(C4=CCCCC4)ccc3S(=O)(=O)N([C@@H](C)CO)C[C@H]2C)c1	20.9

Structure (SMILES)	AC35 [µM]
Cc1noc(C)c1S(=O)(=O)Nc1ccc2c(c1)C(=O)N([C@H](C)CO)C[C@@H](C)[C@@H](CN(C)Cc1ccc(C(F)(F)F)cc1)OCCCC[C@H](C)O2	26.4
O=C(Nc1ccc(C(F)(F)F)cc1)Nc1ccc2c(c1)[C@@H]1C[C@H](CC(=O)N3CCc4ccccc4C3)O[C@@H](CO)[C@@H]1O2	9.85
O=C(Nc1ccc(C(F)(F)F)cc1)Nc1ccc2c(c1)[C@@H]1C[C@H](CC(=O)N3CCc4ccccc4C3)O[C@H](CO)[C@@H]1O2	8.02
O=C(C[C@H]1CC[C@H]2[C@@H](COC[C@@H](O)CN2Cc2ccc3c(c2)OCO3)O1)Nc1ccc(-c2ccccc2)cc1	16.1
Cc1noc(C)c1S(=O)(=O)Nc1ccc2c(c1)C(=O)N([C@H](C)CO)C[C@H](C)[C@H](CN(C)Cc1ccc(C(F)(F)F)cc1)OCCCC[C@H](C)O2	27.8
O=C(C[C@@H]1C[C@@H]2c3cc(NS(=O)(=O)c4ccc(F)cc4)ccc3O[C@@H]2[C@@H](CO)O1)NCc1ccc(Oc2ccccc2)cc1	12.3
CC(C)(C)[S@@](=O)N1Cc2cc(C(=O)NCc3ccccc3F)nc(-c3cccc(-c4cccnc4)c3)c2[C@H]1CCO	29.5
CN1C(=O)c2cc(NC(=O)c3ccc(C(F)(F)F)cc3)ccc2OC[C@@H]2O[C@@H](CC(=O)NC3Cc4ccccc4C3)CC[C@H]21	11.6
CC(C)NC(=O)N1Cc2cc(C(=O)NC3Cc4ccccc4C3)nc(-c3cccc(-c4cccnc4)c3)c2[C@H]1CCO	28.2
Cc1noc(C)c1S(=O)(=O)Nc1ccc2c(c1)C(=O)N([C@@H](C)CO)C[C@H](C)[C@@H](CN(C)Cc1ccc(C(F)(F)F)cc1)OCCCC[C@@H](C)O2	21.5
C[C@@H]1CN([C@H](C)CO)C(=O)Cc2cc(NC(=O)Cc3ccccc3)ccc2O[C@@H]1CN(C)Cc1ccc(C(F)(F)F)cc1	31.5
Cc1ccc(S(=O)(=O)N(C)C[C@H]2Oc3cc(C#Cc4ccncc4)ccc3S(=O)(=O)N([C@@H](C)CO)C[C@H]2C)cc1	11.5
N#C[C@H]1[C@H](c2ccc(C#Cc3ccccc3F)cc2)[C@@H](CO)N1C(=O)c1cccnc1	22.8
Cc1noc(C)c1S(=O)(=O)Nc1ccc2c(c1)C(=O)N([C@@H](C)CO)C[C@H](C)[C@H](CN(C)Cc1ccc(C(F)(F)F)cc1)OCCCC[C@@H](C)O2	28.9
N#C[C@@H]1[C@H](c2ccc(C#Cc3ccccc3F)cc2)[C@@H](CO)N1C(=O)c1cccnc1	0.9
C[C@H](CO)N1C[C@H](C)[C@@H](CN(C)S(=O)(=O)c2cccc(F)c2)Oc2ncc(C#CC3CCCCC3)cc2C1=O	35.3
COc1ccc(NC(=O)N(C)C[C@@H]2Oc3cc(C#CCC(C)C)ccc3S(=O)(=O)N([C@@H](C)CO)C[C@@H]2C)cc1	28.3
C[C@@H]1CN([C@@H](C)CO)S(=O)(=O)c2ccc(C#C[C@@H](C)O)cc2O[C@H]1CN(C)Cc1ccc(-c2ccccc2)cc1	21.5
CC(C)(C)[S@@](=O)N1Cc2cc(C(=O)NCc3ccccc3F)nc(-c3cccc(-c4ccncc4)c3)c2[C@H]1CCO	35.5
CCCNC(=O)c1cc2c(c(-c3cccc(-c4cccc(F)c4)c3)n1)[C@H](CCO)N([S@@](=O)C(C)(C)C)C2	30.6
Cc1noc(C)c1S(=O)(=O)Nc1ccc2c(c1)C(=O)N([C@@H](C)CO)C[C@H](C)[C@@H](CN(C)Cc1ccc(C(F)(F)F)cc1)OCCCC[C@H](C)O2	30.3
O=C(C[C@@H]1CC[C@@H]2[C@H](COC[C@@H](O)CN2Cc2ccc(Oc3ccccc3)cc2)O1)N1CCc2ccccc2C1	17.8
CN(C)C(=O)c1cccc(-c2cccc(-c3nc(C(=O)NCc4ccccc4)cc4c3[C@@H](CCO)N([S@](=O)C(C)(C)C)C4)c2)c1	16.5

Structure (SMILES)	AC35 [µM]
CC(C)NC(=O)N1Cc2cc(C(=O)NC3Cc4ccccc4C3)nc(-c3cccc(-c4cccnc4)c3)c2[C@@H]1CCO	23.7
COc1ccc(-c2cccc(-c3nc(C(=O)NCC(F)(F)F)cc4c3[C@H](CCO)N([S@@](=O)C(C)(C)C)C4)c2)cc1	21.5
C[C@@H]1CN([C@H](C)CO)S(=O)(=O)c2ccc(C#C[C@@H](C)O)cc2O[C@H]1CN(C)Cc1ccc(-c2ccccc2)cc1	22.4
CN(C)c1ccc2c(c1)[C@@H]1C[C@@H](CC(=O)NCc3ccc(Oc4ccccc4)cc3)O[C@H](CO)[C@@H]1O2	12.9
O=C(C[C@@H]1C[C@H]2c3cc(NC(=O)c4ccc5c(c4)OCO5)ccc3O[C@H]2[C@H](CO)O1)NC1CCCCC1	24
O=C(C[C@@H]1CC[C@@H]2[C@H](COC[C@@H](O)CN2Cc2ccc3c(c2)OCO3)O1)Nc1ccc(-c2ccccc2)cc1	10
COc1cccc(C#Cc2ccc([C@@H]3[C@H](C#N)N(C(=O)c4ccccn4)[C@H]3CO)cc2)c1	26.1
C[C@H]1CN([C@@H](C)CO)S(=O)(=O)c2ccc(C#Cc3ccncc3)cc2O[C@H]1CN(C)C(=O)Nc1ccc2c(c1)OCO2	14.8
Cc1noc(C)c1S(=O)(=O)Nc1ccc2c(c1)C(=O)N([C@@H](C)CO)C[C@@H](C)[C@@H](CN(C)Cc1ccc(C(F)(F)F)cc1)OCCCC[C@H](C)O2	32.8
N#C[C@H]1[C@H](c2ccc(C#Cc3ccccc3F)cc2)[C@H](CO)N1C(=O)c1cccnc1	20.8
COc1cccc(S(=O)(=O)N(C)C[C@@H]2Oc3cc(C4=CCCCC4)ccc3S(=O)(=O)N([C@@H](C)CO)C[C@@H]2C)c1	24
COc1ccccc1C#Cc1cnc2c(c1)C(=O)N([C@@H](C)CO)C[C@H](C)[C@@H](CN(C)C(=O)c1ccc3c(c1)OCO3)O2	31.2
Cc1noc(C)c1S(=O)(=O)Nc1ccc2c(c1)C(=O)N([C@@H](C)CO)C[C@H](C)[C@H](CN(C)Cc1ccc(C(F)(F)F)cc1)OCCCC[C@H](C)O2	33.4
CN(C)c1ccc2c(c1)[C@@H]1C[C@H](CC(=O)NCc3ccc(Oc4ccccc4)cc3)O[C@@H](CO)[C@@H]1O2	11.4
Cc1ccc(S(=O)(=O)N(C)C[C@H]2Oc3cc(C#Cc4ccncc4)ccc3S(=O)(=O)N([C@@H](C)CO)C[C@@H]2C)cc1	10.2
C[C@@H]1CN([C@@H](C)CO)C(=O)Cc2cc(NC(=O)Cc3ccccc3)ccc2O[C@H]1CN(C)Cc1ccc(C(F)(F)F)cc1	30
CC(C)c1ccc(NC(=O)C[C@H]2CC[C@H]3[C@@H](COc4ccc(NC(=O)Nc5ccc(F)c(F)c5)cc4C(=O)N3C)O2)cc1	18.1
COc1cccc(S(=O)(=O)N(C)C[C@H]2Oc3cc(C4=CCCCC4)ccc3S(=O)(=O)N([C@@H](C)CO)C[C@@H]2C)c1	20.2
Cc1noc(C)c1S(=O)(=O)Nc1ccc2c(c1)C(=O)N([C@H](C)CO)C[C@H](C)[C@H](CN(C)Cc1ccc(C(F)(F)F)cc1)OCCCC[C@@H](C)O2	33.8
COc1cccc(S(=O)(=O)N(C)C[C@@H]2Oc3cc(C4=CCCCC4)ccc3S(=O)(=O)N([C@H](C)CO)C[C@H]2C)c1	23.4
Cc1noc(C)c1S(=O)(=O)Nc1ccc2c(c1)C(=O)N([C@H](C)CO)C[C@H](C)[C@@H](CN(C)Cc1ccc(C(F)(F)F)cc1)OCCCC[C@H](C)O2	22.1
